Experimental data published in US5234907A, “Synthetic vasoactive intestinal peptide analogs” (Hoffmann-La Roche Inc., priority 1991, dated 1993).
*1 amine or outer side, *2 acyl side, *3 side chain or, on linkers, in order; H or OH if unused. [ ]: non-standard residue; d: D form. The star is where a group is joined. Cys(Acm) = CC(=O)NCSC[C@H](N[*:1])C(=O)[*:2]; Phe(4-NH2) = Nc1ccc(C[C@H](N)C(=O)O)cc1; Phe(4-F) = N[C@@H](Cc1ccc(F)cc1)C(=O)O; NMeA = CN[C@@H](C)C(=O)O; Nle = CCCC[C@H](N)C(=O)O; Orn = NCCC[C@H](N)C(=O)O; Acm = CC(=O)NC*

Key:
[1] = system: guinea pig tracheal smooth muscle; test: Tracheal relaxant activity of VIP analogs on isolated guinea pig tracheal rings; assay type: cell-based; conditions: cumulative concentration response; responses as % of maximum response to VIP (10^-6 M=100%); at least three tissues pooled; linear regression
Protocol: The relaxant activity of the VIP analogs was studied in a model utilizing guinea pig trachea. [Wasserman, M. A. et al., in Vasoactive Intestinal Peptide, S. I. Said, ed., Raven Press, N.Y. 1982, pp 177-184]; All tissues were taken from male albino guinea pig weighing 400-600 g, anesthesized with urethane (2 g/kg, i.p.). After exanguination, the trachea were removed and divided into four ring segments (3 mm length). Each ring was suspended by 30 gauge stainless steel wires in a 10 mL jacketed tissue bath and attached via 4-0 silk thread to a Grass force displacement transducer (model FT03C, Grass Instruments Co., Quincy, Ma), for isometric recording of tension. The smooth muscle was bathed in modified Krebs solution of the following composition: NaCl, 120 mM; KCl, 4.7 mM; CaCl2, 2.5 mM; MgSO.4 7H2 O, 1.2 mM; NaHCO3, 25 mM; K2 HPO4 monobasic, 1.2 mM; and dextrose, 10 mM. Tissue baths were maintained at 37° C. and constantly bubbled with 95% O2 and 5% CO2. Responses were recorded on an 8 channel and a 4 channel Hewlett-Packard (model 7702B and 7754A, respectively) recorder (Hewlett-Packard, Paramus, N.J.). […] Frequent readjustments of tension were required during the 60 minute stabilization period which followed. Tissues were rinsed at 15 minute intervals.
Cumulative concentration response curves were obtained for each tissue by successive […] increases in the bath concentration of VIP or VIP analogs according to the method of VanRossum [Arch. Int. Pharmacodyn., 143, 299-330 (1963)]. Only one cumulative dose response curve was obtained on a single tissue. To minimize variability between tissues, relaxant responses were expressed as a percentage of the maximum response obtained to VIP (10^-6 M=100%) added at the end of each concentration response experiment. Responses obtained from at least three tissues were pooled and EC50 values were determined by linear regression.

[2] = system: guinea pigs; test: In vivo bronchodilator activity by tracheal instillation against histamine-induced bronchoconstriction; parameters: species or system guinea pig; conditions: 100 μl, anesthetized male Hartley guinea pigs, histamine challenge 50 μg/kg i.v., inhibition of tracheal pressure increase
Protocol: The in vivo bronchodilator activity of VIP analogs in guinea pigs was assessed by the tracheal instillation route of administration. This technique utilized male guinea pigs (Hartley strain, Charles River) weighing 400-600 g. Animals were anesthetized with urethane (2 g/kg) intraperitoneally and a polyethylene cannula was inserted into the jugular vein for intravenous drug administration.
The animals were tracheotomized and dosing solutions of distilled water or test compound dissolved in distilled water were administered into the trachea, approximately three-quarter the distance to the carina with a pipette. The concentration of the dosing solution was adjusted to deliver a constant volume of 100 μl. The animals were placed supine for one minute to aid drug delivery to the lung. One minute later, spontaneous breathing was arrested with succinylcholine chloride (1.2 mg/kg) administered intravenously, and the animals were ventilized with a Harvard Model 680 small animal respirator set at 40 breaths/min and 4.0 cm^3 stoke volume. The animals were challenged with a maximal constrictory dose of histamine (50 μg/kg, i.v.) and tracheal pressure (cm of water) was recorded from a Statham pressure transducer (P 32 AA).
The change in tracheal pressure was averaged for at least 3 control and 3 drug-treated animals and percent inhibition was calculated. The relative potency of compounds administered by the instillation route was determined by administering various doses of test compound and calculating the median inhibitory dose (ID50 value). The ID50 was determined from log dose-reasons curves generated by at least 3 doses that caused inhibitory effects between 10% and 90%. The correlation coefficient for the regression line of each antagonist was always greater than 0.95.
For determination of the time course of inhibition for various compounds, the time between administration of compound and challenge with histamine was varied. The time course of activity was calculated as the time when inhibition decreased to 40%.

Substance	EC50 [1] [nM]	Bronchodilator activity in guinea pigs, ED50 [2] [µg]
Ac--[N--Me--Ala^1, Lys^12, Nle^17, Ala^19, ^26, Thr^28 ]--VIP (Ac-[NMeA]SDAVFTDNYTKLRKQ[Nle]AAKKYLNSVLT-NH2; SMILES CCCC[C@H](NC(=O)[C@H](CCC(N)=O)NC(=O)[C@H](CCCCN)NC(=O)[C@H](CCCNC(=N)N)NC(=O)[C@H](CC(C)C)NC(=O)[C@H](CCCCN)NC(=O)[C@@H](NC(=O)[C@H](Cc1ccc(O)cc1)NC(=O)[C@H](CC(N)=O)NC(=O)[C@H](CC(=O)O)NC(=O)[C@@H](NC(=O)[C@H](Cc1ccccc1)NC(=O)[C@@H](NC(=O)[C@H](C)NC(=O)[C@H](CC(=O)O)NC(=O)[C@H](CO)NC(=O)[C@H](C)N(C)C(C)=O)C(C)C)[C@@H](C)O)[C@@H](C)O)C(=O)N[C@@H](C)C(=O)N[C@@H](C)C(=O)N[C@@H](CCCCN)C(=O)N[C@@H](CCCCN)C(=O)N[C@@H](Cc1ccc(O)cc1)C(=O)N[C@@H](CC(C)C)C(=O)N[C@@H](CC(N)=O)C(=O)N[C@@H](CO)C(=O)N[C@H](C(=O)N[C@@H](CC(C)C)C(=O)N[C@H](C(N)=O)[C@@H](C)O)C(C)C) [Ac--(SEQ ID NO: 91)--NH2, residue before ^26 lost in print, probably Val^26]	2.8	1.5
Ac--[p-F--Phe^6, p-NH2 --Phe^10, Lys^12, Nle^17, Val^26, Thr^28 ]--VIP (Ac-HSDAV[Phe(4-F)]TDN[Phe(4-NH2)]TKLRKQ[Nle]AVKKYLNSVLT-NH2; SMILES CCCC[C@H](NC(=O)[C@H](CCC(N)=O)NC(=O)[C@H](CCCCN)NC(=O)[C@H](CCCNC(=N)N)NC(=O)[C@H](CC(C)C)NC(=O)[C@H](CCCCN)NC(=O)[C@@H](NC(=O)[C@H](Cc1ccc(N)cc1)NC(=O)[C@H](CC(N)=O)NC(=O)[C@H](CC(=O)O)NC(=O)[C@@H](NC(=O)[C@H](Cc1ccc(F)cc1)NC(=O)[C@@H](NC(=O)[C@H](C)NC(=O)[C@H](CC(=O)O)NC(=O)[C@H](CO)NC(=O)[C@H](Cc1c[nH]cn1)NC(C)=O)C(C)C)[C@@H](C)O)[C@@H](C)O)C(=O)N[C@@H](C)C(=O)N[C@H](C(=O)N[C@@H](CCCCN)C(=O)N[C@@H](CCCCN)C(=O)N[C@@H](Cc1ccc(O)cc1)C(=O)N[C@@H](CC(C)C)C(=O)N[C@@H](CC(N)=O)C(=O)N[C@@H](CO)C(=O)N[C@H](C(=O)N[C@@H](CC(C)C)C(=O)N[C@H](C(N)=O)[C@@H](C)O)C(C)C)C(C)C) [Ac--(SEQ ID NO: 68)--NH2]	1.2	3.0
Ac--[p-F--Phe^6, Lys^12, Nle^17, Ala^19, Val^26, Thr^28, Gly^29,30, Cys(Acm)^31 ]--VIP (Ac-HSDAV[Phe(4-F)]TDNYTKLRKQ[Nle]AAKKYLNSVLTGG[Cys(Acm)]-NH2; SMILES CCCC[C@H](NC(=O)[C@H](CCC(N)=O)NC(=O)[C@H](CCCCN)NC(=O)[C@H](CCCNC(=N)N)NC(=O)[C@H](CC(C)C)NC(=O)[C@H](CCCCN)NC(=O)[C@@H](NC(=O)[C@H](Cc1ccc(O)cc1)NC(=O)[C@H](CC(N)=O)NC(=O)[C@H](CC(=O)O)NC(=O)[C@@H](NC(=O)[C@H](Cc1ccc(F)cc1)NC(=O)[C@@H](NC(=O)[C@H](C)NC(=O)[C@H](CC(=O)O)NC(=O)[C@H](CO)NC(=O)[C@H](Cc1c[nH]cn1)NC(C)=O)C(C)C)[C@@H](C)O)[C@@H](C)O)C(=O)N[C@@H](C)C(=O)N[C@@H](C)C(=O)N[C@@H](CCCCN)C(=O)N[C@@H](CCCCN)C(=O)N[C@@H](Cc1ccc(O)cc1)C(=O)N[C@@H](CC(C)C)C(=O)N[C@@H](CC(N)=O)C(=O)N[C@@H](CO)C(=O)N[C@H](C(=O)N[C@@H](CC(C)C)C(=O)N[C@H](C(=O)NCC(=O)NCC(=O)N[C@@H](CSCNC(C)=O)C(N)=O)[C@@H](C)O)C(C)C) [Ac--(SEQ ID NO: 76)--NH2]	–	017
Ac--[Glu^8, Lys^12, Nle^17, Ala^19, Val^26, Thr^28, Gly^29,30, Thr^31 ]--VIP (Ac-HSDAVFTENYTKLRKQ[Nle]AAKKYLNSVLTGGT-NH2; SMILES CCCC[C@H](NC(=O)[C@H](CCC(N)=O)NC(=O)[C@H](CCCCN)NC(=O)[C@H](CCCNC(=N)N)NC(=O)[C@H](CC(C)C)NC(=O)[C@H](CCCCN)NC(=O)[C@@H](NC(=O)[C@H](Cc1ccc(O)cc1)NC(=O)[C@H](CC(N)=O)NC(=O)[C@H](CCC(=O)O)NC(=O)[C@@H](NC(=O)[C@H](Cc1ccccc1)NC(=O)[C@@H](NC(=O)[C@H](C)NC(=O)[C@H](CC(=O)O)NC(=O)[C@H](CO)NC(=O)[C@H](Cc1c[nH]cn1)NC(C)=O)C(C)C)[C@@H](C)O)[C@@H](C)O)C(=O)N[C@@H](C)C(=O)N[C@@H](C)C(=O)N[C@@H](CCCCN)C(=O)N[C@@H](CCCCN)C(=O)N[C@@H](Cc1ccc(O)cc1)C(=O)N[C@@H](CC(C)C)C(=O)N[C@@H](CC(N)=O)C(=O)N[C@@H](CO)C(=O)N[C@H](C(=O)N[C@@H](CC(C)C)C(=O)N[C@H](C(=O)NCC(=O)NCC(=O)N[C@H](C(N)=O)[C@@H](C)O)[C@@H](C)O)C(C)C) [Ac--(SEQ ID NO: 15)--NH2]	0.55	0.064
Ac--[Glu^8, Lys^12, Nle^17, Val^26, Thr^28, Gly^29,30, Met^31 ]--VIP (Ac-HSDAVFTENYTKLRKQ[Nle]AVKKYLNSVLTGGM-NH2; SMILES CCCC[C@H](NC(=O)[C@H](CCC(N)=O)NC(=O)[C@H](CCCCN)NC(=O)[C@H](CCCNC(=N)N)NC(=O)[C@H](CC(C)C)NC(=O)[C@H](CCCCN)NC(=O)[C@@H](NC(=O)[C@H](Cc1ccc(O)cc1)NC(=O)[C@H](CC(N)=O)NC(=O)[C@H](CCC(=O)O)NC(=O)[C@@H](NC(=O)[C@H](Cc1ccccc1)NC(=O)[C@@H](NC(=O)[C@H](C)NC(=O)[C@H](CC(=O)O)NC(=O)[C@H](CO)NC(=O)[C@H](Cc1c[nH]cn1)NC(C)=O)C(C)C)[C@@H](C)O)[C@@H](C)O)C(=O)N[C@@H](C)C(=O)N[C@H](C(=O)N[C@@H](CCCCN)C(=O)N[C@@H](CCCCN)C(=O)N[C@@H](Cc1ccc(O)cc1)C(=O)N[C@@H](CC(C)C)C(=O)N[C@@H](CC(N)=O)C(=O)N[C@@H](CO)C(=O)N[C@H](C(=O)N[C@@H](CC(C)C)C(=O)N[C@H](C(=O)NCC(=O)NCC(=O)N[C@@H](CCSC)C(N)=O)[C@@H](C)O)C(C)C)C(C)C) [Ac--(SEQ ID NO: 9)--NH2]	–	1.7
Ac--[Leu^5, Orn^12, Ala^17,19, Thr^25, Val^26, Thr^28, Gly^29,30, Cys(Acm)^31 ]--VIP (Ac-HSDALFTDNYT[Orn]LRKQAAAKYLNSTVNTGGC(Acm)-NH2; SMILES CC(=O)NCSC[C@H](NC(=O)CNC(=O)CNC(=O)[C@@H](NC(=O)[C@H](CC(N)=O)NC(=O)[C@@H](NC(=O)[C@@H](NC(=O)[C@H](CO)NC(=O)[C@H](CC(N)=O)NC(=O)[C@H](CC(C)C)NC(=O)[C@H](Cc1ccc(O)cc1)NC(=O)[C@H](CCCCN)NC(=O)[C@H](C)NC(=O)[C@H](C)NC(=O)[C@H](C)NC(=O)[C@H](CCC(N)=O)NC(=O)[C@H](CCCCN)NC(=O)[C@H](CCCNC(=N)N)NC(=O)[C@H](CC(C)C)NC(=O)[C@H](CCCN)NC(=O)[C@@H](NC(=O)[C@H](Cc1ccc(O)cc1)NC(=O)[C@H](CC(N)=O)NC(=O)[C@H](CC(=O)O)NC(=O)[C@@H](NC(=O)[C@H](Cc1ccccc1)NC(=O)[C@H](CC(C)C)NC(=O)[C@H](C)NC(=O)[C@H](CC(=O)O)NC(=O)[C@H](CO)NC(=O)[C@H](Cc1c[nH]cn1)NC(C)=O)[C@@H](C)O)[C@@H](C)O)[C@@H](C)O)C(C)C)[C@@H](C)O)C(N)=O) [Ac--(SEQ ID NO: 8)--NH2]	–	0.28
